Measured values reported in PMC7216583 (Parasites & Vectors, 2020).
Counter-ions that a name gives are not always drawn. Like-named read-outs stand apart in the source and are kept apart here.

Columns and labels:
PARP1 = molecular target: PARP1; design: method as in S-inhibitor; conditions: ref S-inhibitor; cited from earlier work
[1] = test system: Toxoplasma gondii RH-2F tachyzoites; test: microbe, parasite or virus in culture; conditions: 72 h
MEK1/2 = test system: MEK1/2; design: method as in S-inhibitor; conditions: ref S-inhibitor; cited from earlier work
[2] = test system: Toxoplasma gondii RH-2F tachyzoites; conditions: preliminary screen, mean
phosphodiesterase = molecular target: phosphodiesterase; design: method as in S-inhibitor; conditions: ref S-inhibitor; cited from earlier work
CDK1/cyclin B = test system: CDK1/cyclin B; design: method as in S-inhibitor; conditions: ref S-inhibitor; cited from earlier work
CDK2/cyclin E = test system: CDK2/cyclin E; design: method as in S-inhibitor; conditions: ref S-inhibitor; cited from earlier work
ERβ = test system: ERβ; design: method as in S-inhibitor; conditions: ref S-inhibitor; read-out: IC50, ERβ binding; cited from earlier work
ERα = conditions: read-out: IC50, ERα binding; ref S-inhibitor; cited from earlier work
in vitro = conditions: human; for viability at 72 h: Host viability (%) mean
5-HT2 receptor = molecular target: 5-HT2 receptor; design: method as in S-inhibitor; conditions: ref S-inhibitor; read-out: Ki, serotonin 5-HT2; cited from earlier work
dopamine D2 = molecular target: dopamine D2; design: method as in S-inhibitor; conditions: ref S-inhibitor; cited from earlier work
Abl = test system: Abl; design: method as in library vendor description; conditions: ref library vendor description; cited from earlier work
EGFR = test system: EGFR; design: method as in library vendor description; conditions: ref library vendor description; cited from earlier work
ErbB2 = test system: ErbB2; design: method as in library vendor description; conditions: ref library vendor description; cited from earlier work
[3] = molecular target: serotonin-norepinephrine reuptake; conditions: read-out: Ki, serotonin-norepinephrine reuptake inhibitor; ref S-inhibitor; cited from earlier work
Flt4 = test system: Flt4; design: method as in S-inhibitor; conditions: ref S-inhibitor; cited from earlier work
HIV-1 IIIB = test system: HIV-1 IIIB; design: method as in S-inhibitor; conditions: ref S-inhibitor; cited from earlier work
HIV-2 EHO = test system: HIV-2 EHO; design: method as in S-inhibitor; conditions: ref S-inhibitor; cited from earlier work
HIV-2 ROD = test system: HIV-2 ROD; design: method as in S-inhibitor; conditions: ref S-inhibitor; cited from earlier work
reverse transcriptase = conditions: read-out: IC50, reverse transcriptase; ref S-inhibitor; cited from earlier work
S6K1 = test system: S6K1; design: method as in S-inhibitor; conditions: ref S-inhibitor; cited from earlier work
MSK1 = test system: MSK1; design: method as in S-inhibitor; conditions: ref S-inhibitor; cited from earlier work
PKA = test system: PKA; design: method as in S-inhibitor; conditions: ref S-inhibitor; cited from earlier work
PKBα = test system: PKBα; design: method as in S-inhibitor; conditions: ref S-inhibitor; cited from earlier work
MAPKAP-K1b = test system: MAPKAP-K1b; design: method as in S-inhibitor; conditions: ref S-inhibitor; cited from earlier work
If = test system: If; design: method as in S-inhibitor; conditions: ref S-inhibitor; cited from earlier work
smoothened [4] = test system: smoothened; design: method as in S-inhibitor; conditions: mouse; ref S-inhibitor; cited from earlier work
smoothened [5] = test system: smoothened; design: method as in S-inhibitor; conditions: human; ref S-inhibitor; cited from earlier work
glucokinase (GK) = molecular target: glucokinase (GK); design: method as in S-inhibitor; conditions: ref S-inhibitor; read-out: EC50, glucokinase activation; cited from earlier work
V617F mutant JAK2 = test system: V617F mutant JAK2; design: method as in S-inhibitor; conditions: in Ba/F3 cells; ref S-inhibitor; cited from earlier work
FAK = conditions: read-out: IC50, FAK; ref S-inhibitor; cited from earlier work
D2S receptor = conditions: read-out: Ki, D2S receptor; ref S-inhibitor; cited from earlier work
D2L receptor = conditions: read-out: Ki, D2L receptor; ref S-inhibitor; cited from earlier work
D3 receptor = conditions: read-out: Ki, D3 receptor; ref S-inhibitor; cited from earlier work
D4 receptor = conditions: read-out: Ki, D4 receptor; ref S-inhibitor; cited from earlier work
[6] = test system: voltage-gated sodium channels; design: method as in S-inhibitor; conditions: ref S-inhibitor; cited from earlier work
WT PFV IN = test system: WT PFV IN; design: method as in S-inhibitor; conditions: ref S-inhibitor; cited from earlier work
S217Q PFV IN = test system: S217Q PFV IN; design: method as in S-inhibitor; conditions: ref S-inhibitor; cited from earlier work
PDE4 = test system: PDE4; design: method as in S-inhibitor; conditions: ref S-inhibitor; cited from earlier work
γ-secretase = molecular target: γ-secretase; design: method as in S-inhibitor; conditions: ref S-inhibitor, cited from earlier work
Notch signaling = test system: Notch signaling; design: method as in S-inhibitor; conditions: ref S-inhibitor; cited from earlier work
(Na,K)-ATPase = molecular target: (Na,K)-ATPase; design: method as in S-inhibitor; conditions: one value printed for both enzymes; ref S-inhibitor; cited from earlier work
alkaline phosphatase = conditions: read-out: IC50, alkaline phosphatase; one value printed for both enzymes; ref S-inhibitor; cited from earlier work
GSK-3β = test system: GSK-3β; design: method as in S-inhibitor; conditions: ref S-inhibitor; cited from earlier work
[7] = test system: cleavage of Tyr from Met-enkephalin; design: method as in S-inhibitor; conditions: ref S-inhibitor; read-out: IC50, inhibition of cleavage of Tyr from Met-enkephalin; cited from earlier work
[8] = read-out: Parasite inhibition (%) mean, preliminary screen, mean
[9] = read-out: Parasite inhibition (%) mean

For `CN(C)Cc1ccc(-c2nc3cccc4c3n2CCNC4=O)cc1` [AG14361], the Ki (PARP1) is given as less than 0.005 µM and the inhibition of growth at 5 µM [1, 8] is given as 28.9%.

For `Cc1cc(C(=O)NOCCO)c(Nc2ccc(I)cc2F)n(C)c1=O` [AZD8330], the IC50 (MEK1/2) is listed as 0.007 µM and the inhibition of growth at 5 µM [1, 8] is listed as -18.8%.

In the case of `Cn1c(=O)c2[nH]cnc2n(C)c1=O.Cn1c(=O)c2[nH]cnc2n(C)c1=O.NCCN` [Aminophylline (Truphylline)], the “Parasite inhibition (%) mean” value [2] is given as 0.8% and the IC50 (phosphodiesterase) is given as 120 µM.

For `CCCCOc1c(C(=O)c2c(F)cc(C)cc2F)c[nH]c2nncc1-2` [BMS-265246], the IC50 (CDK1/cyclin B) is given as 0.006 µM, the IC50 (CDK2/cyclin E) is given as 0.009 µM and the inhibition of growth at 5 µM [1, 8] is given as 7.3%.

In the case of `Cc1c(-c2ccc(O)cc2)n(Cc2ccc(OCCN3CCCCCC3)cc2)c2ccc(O)cc12` [Bazedoxifene HCl], the IC50 (ERβ) is listed as […], the IC50 (ERα) is listed as […] and the inhibition of growth at 5 µM [1, 8] is listed as -12.8%.

In the case of `CCN1CCN(c2cc(-c3ccc(F)cc3)c3c(n2)CCCCCC3)CC1` [Blonanserin (Lonasen)], the viability at 72 h (in vitro) is given as 88.3%, the Ki (5-HT2 receptor) is given as 0.00398 µM and the Ki (dopamine D2) is given as 0.0148 µM. The inhibition of growth at 5 µM [1, 8] was 82.1%.

For `COc1cc(Nc2c(C#N)cnc3cc(OCCCN4CCN(C)CC4)c(OC)cc23)c(Cl)cc1Cl` [Bosutinib (SKI-606)], the IC50 (Abl) is given as […] and the inhibition of growth at 5 µM [1, 8] is given as 22.4%.

For `C=CC(=O)Nc1cc2c(Nc3ccc(F)c(Cl)c3)ncnc2cc1OCCCN1CCOCC1` [CI-1033 (Canertinib)], the IC50 (EGFR) is given as […], the IC50 (ErbB2) is given as […] and the inhibition of growth at 5 µM [1, 8] is given as -5.8%.

For `CNCC[C@H](Oc1cccc2ccccc12)c1cccs1` [Duloxetine HCl (Cymbalta)], the Ki [3] is given as 0.0046 µM and the inhibition of growth at 5 µM [1, 9] is given as 30.9%.

For `Cc1cc(Nc2cc(N3CCN(C)CC3)nc(/C=C/c3ccccc3)n2)n[nH]1` [ENMD-2076 L-(+)-Tartaric acid], the viability at 72 h (in vitro; preliminary screen, mean) is listed as 35.5% and the IC50 (Flt4) is listed as 0.0159 µM.

In the case of `COc1cc2c(cc1Cc1cccc(Cl)c1F)c(=O)c(C(=O)O)cn2[C@H](CO)C(C)C` [Elvitegravir (GS-9137)], the IC50 (HIV-1 IIIB) is given as 0.0007 µM, the IC50 (HIV-2 EHO) is given as 0.0028 µM and the IC50 (HIV-2 ROD) is given as 0.0014 µM. It also gave an inhibition of growth at 5 µM [1, 8] of 0.7%.

In the case of `Nc1nc(=O)n([C@@H]2CS[C@H](CO)O2)cc1F` [Emtricitabine (Emtriva)], the IC50 (reverse transcriptase) is given as 27.7 µM and the inhibition of growth at 5 µM [1, 9] is given as 0.4%.

In the case of `O=S(=O)(NCCNC/C=C/c1ccc(Br)cc1)c1cccc2cnccc12` [H 89 2HCl, reference compound], the viability at 72 h, 5 µM (in vitro; Host viability (%) Mean ± SD) is given as 89.4 ± 4.6%, the viability at 72 h (in vitro) is given as 89.4% and the IC50 (S6K1) is given as 0.08 µM. For the same compound, the IC50 (MSK1) was 0.12 µM, the IC50 (PKA) was 0.135 µM and the IC50 (PKBα) was […]. The IC50 (MAPKAP-K1b) was 2.8 µM and the inhibition at 5 µM ([1]; read-out: Parasite inhibition (%) Mean ± SD) was 83.5 ± 1.8%.

For `COc1cc2c(cc1OC)CC(=O)N(CCCN(C)C[C@@H]1Cc3cc(OC)c(OC)cc31)CC2` [Ivabradine HCl (Procoralan)], the IC50 (If) is listed as 2.9 µM and the inhibition of growth at 5 µM [1, 8] is listed as 0.6%.

For `Cc1c(C(=O)Nc2ccc(N3C[C@@H](C)O[C@@H](C)C3)nc2)cccc1-c1ccc(OC(F)(F)F)cc1` [LDE225 (NVP-LDE225, Erismodegib)], the IC50 (smoothened [4]) is given as 0.0013 µM, the IC50 (smoothened [5]) is given as 0.0025 µM and the inhibition of growth at 5 µM [1, 8] is given as -3.8%.

In the case of `O=C(Nc1ncc(SCCN2CCCC2)s1)[C@]1(c2ccc(S(=O)(=O)C3CC3)cc2)C[C@@H]1C1CCCCC1` [LY2608204], the EC50 (glucokinase (GK)) is given as 0.042 µM and the inhibition of growth at 5 µM [1, 9] is given as -25.9%.

For `Cc1cc(Nc2cc(CN3CCOCC3)c3nc(C)c(Cc4ccc(Cl)cc4F)n3n2)n[nH]1` [LY2784544], the IC50 (V617F mutant JAK2) is listed as 0.055 µM and the inhibition of growth at 5 µM [1, 8] is listed as 11.1%.

For `CS(=O)(=O)c1cccc(CNc2nc(Nc3ccc4c(c3)CCC(=O)N4)ncc2C(F)(F)F)c1` [PF 573228], the IC50 (FAK) is given as 0.004 µM and the inhibition of growth at 5 µM [1, 8] is given as 5%.

For `CCCN[C@H]1CCc2nc(N)sc2C1` [Pramipexole 2HCl monohydrate], the Ki (D2S receptor) is listed as […], the Ki (D2L receptor) is listed as 0.0022 µM and the Ki (D3 receptor) is listed as 0.0005 µM. The Ki (D4 receptor) was 0.0051 µM and the inhibition of growth at 5 µM [1, 9] was -9.5%.

In the case of `CCCOc1ccc(C(=O)OCCN(CC)CC)cc1N` [Proparacaine HCl], the “ED50, voltage-gated sodium channels” value [6] is given as “Proparacaine HCl is a voltage-gated sodium channels antagonist with ED50 of 3.4 mM” and the inhibition of growth at 5 µM [1, 8] is given as 2.4%.

In the case of `Cc1nnc(C(=O)NC(C)(C)c2nc(C(=O)NCc3ccc(F)cc3)c(O)c(=O)n2C)o1` [Raltegravir (MK-0518)], the IC50 (WT PFV IN) is given as 0.09 µM, the IC50 (S217Q PFV IN) is given as 0.04 µM and the inhibition of growth at 5 µM [1, 8] is given as 0.8%.

In the case of `O=C(Nc1c(Cl)cncc1Cl)c1ccc(OC(F)F)c(OCC2CC2)c1` [Roflumilast (Daxas)], the IC50 (PDE4) is listed as 0.0002 to 0.0043 µM and the inhibition of growth at 5 µM [1, 8] is listed as -0.2%.

For `CC(C)[C@H](O)C(=O)N[C@@H](C)C(=O)N[C@H]1C(=O)N(C)CCc2ccccc21` [Semagacestat (LY450139)], the IC50 (γ-secretase; Aβ38, read-out: IC50, γ-secretase, Aβ38) is listed as 0.012 µM, the IC50 (γ-secretase; Aβ40, read-out: IC50, γ-secretase, Aβ40) is listed as 0.0121 µM and the IC50 (γ-secretase; Aβ42, read-out: IC50, γ-secretase, Aβ42) is listed as 0.0109 µM. For the same compound, the IC50 (Notch signaling) was 0.0141 µM and the inhibition of growth at 5 µM [1, 8] was -9.8%.

In the case of `[Na+].[Na+].[Na+].[O]=[V]([O-])([O-])[O-]` [Sodium orthovanadate], the “Parasite inhibition (%) mean” value [2] is given as 31.8%, the IC50 ((Na,K)-ATPase) is given as 10 µM and the IC50 (alkaline phosphatase) is given as 10 µM.

In the case of `Nc1cccc(-c2cc3c(Oc4cccc(O)c4)ncnc3[nH]2)c1` [TWS119], the IC50 (GSK-3β) is given as 0.03 µM and the inhibition of growth at 5 µM [1, 8] is given as 40.8%.

In the case of Bacitracin zinc, the “Parasite inhibition (%) mean” value [2] is given as 9.0% and the IC50 [7] is given as 10 µM.
